Assays:
[1] = system: humans; details: in vivo; cited from earlier work
[2] = system: mice; details: mouse, in vivo; cited from earlier work
[3] = system: dogs; details: dog, in vivo; cited from earlier work
[4] = biological target: T1, aldose reductase (human recombinant, expressed in SF 9 cells) (Homo sapiens, UniProt P15121); assay: Aldose reductase assay, reduction of glucose to sorbitol (NADPH oxidation, absorbance at 340 nm); assay type: biochemical; details: Lineweaver Burk plots nearly parallel; glucose and glyceraldehyde substrates
T1 construct: host or cells: SF 9 cells
Description: Aldose reductase assays were as described in Nishimura C., Yamaoka T., Mizutani M., Yamashita K., Akera T., Tanimoto T., Purification And Characterization Of The Recombinant Human Aldose Reductase Expressed In Baculovirus System, Biochem. Biophys. Acta, Jun. 24, 1991; 1078(2):171-8.
Briefly, Dimesna (0-20 μM) was incubated at 37° C. with aldose reductase (0.0016 units, human recombinant, expressed in SF 9 cells) and NADPH (0.15 mM) in sodium phosphate buffer (100 mM, pH 6.2). To initiate assays, glucose (10-150 mM) was added to reactions and the decrease in absorbance at 340 nm (oxidation of NADPH) was monitored. Assays were run in duplicate or triplicate. Slopes were calculated using Varian-Cary software package 2.0 and averaged. In all cases errors were 4% or less. Lineweaver Burk analysis (Enzyme Kinetics, version 1.61) was used to calculate inhibition constants.

SMILES: O=S(=O)([O-])CCSSCCS(=O)(=O)[O-].[Na+].[Na+]
- Adverse effects after administration to humans [1]: no adverse effects
- Adverse effects after intravenous administration [2]: no adverse effects
- Adverse effects after intravenous administration [3]: no adverse effects
- Mode of inhibition of the aldose reductase reaction [4]: uncompetitive inhibition

From patent publication US6100247A, “Method of treating diabetic neuropathy” (BioNumerik Pharmaceuticals, Inc., priority 1999, dated 2000)
